Literature values as cited in patent US20210137911A1, “NOVEL CHRONOTHERAPY BASED ON CIRCADIAN RHYTHMS” (THE TRUSTEES OF THE UNIVERSITY OF PENNSYLVANIA, priority 2014, published 2021).
Read-outs that look alike come from different tables or passages of the source. Positions of bridges follow the written chain, without caps; N, C: chain ends. Non-standard residues stand in square brackets, D forms with d. Residues, ends and D or L forms follow the SMILES beside them. hArg = N=C(N)NCCCC[C@H](N)C(=O)O; Mpa = O=C(O)CCS

Conditions: cited from earlier work
[1] = half-life of top selling therapeutic compounds (Table 1)
[2] = half-life of therapeutic compound as listed in Table 1

Compound | ½ Life [1] | also measured
CN1C(=O)CN=C(c2ccccc2)c2cc(Cl)ccc21 [Diazepam] | – | ½ Life (in vivo): 1 h
O=C(O)Cc1ccccc1Nc1c(Cl)cccc1Cl [Diclofenac] | – | ½ Life (in vivo): 2 h
CCCCC[C@H](O)/C=C/[C@H]1[C@H](O)CC(=O)[C@@H]1C/C=C\CCCC(=O)O [Dinoprostone] | 0.0833 h | –
OC(CCCN1CCCCC1)(c1ccccc1)c1ccccc1 [Diphenidol] | 4 h | –
OCCN(CCO)c1nc(N2CCCCC2)c2nc(N(CCO)CCO)nc(N3CCCCC3)c2n1 [Dipyridamole] | 0.66 h | –
CC(CCc1ccc(O)cc1)NCCc1ccc(O)c(O)c1 (stereo not shown) [Dobutamine] | 0.033 h | –
NCCc1ccc(O)c(O)c1 [Dopamine] | 0.033 h | –
CCCCCc1cc(O)c2c(c1)OC(C)(C)[C@@H]1CCC(C)=C[C@@H]21 [Dronabinol] | – | ½ Life (in vivo): 4 h
O=C(CCCN1CC=C(n2c(=O)[nH]c3ccccc32)CC1)c1ccc(F)cc1 [Droperidol] | 1.4 h | –
N[C@H](C(=O)O)[C@H](O)c1ccc(O)c(O)c1 [Droxidopa] | 2 h | –
CC(=O)[C@H]1CC[C@H]2[C@@H]3C=CC4=CC(=O)CC[C@@]4(C)[C@@H]3CC[C@]12C [Dydrogesterone] | 5 h | –
Cn1c(=O)c2c(ncn2CC(O)CO)n(C)c1=O (stereo not shown) [Dyphylline] | 2 h | –
CN1CCC[C@@H]1Cc1c[nH]c2ccc(CCS(=O)(=O)c3ccccc3)cc12 [Eletriptan] | 4 h | –
CCOC(=O)[C@H](CCc1ccccc1)N[C@@H](C)C(=O)N1CCC[C@H]1C(=O)O [Enalapril, reference compound] | 2 h | minimum reported half-life (see Table 1): 2 h
COc1ccc(C(=O)Nc2ccccc2CCC2CCCCN2C)cc1 (stereo not shown) [Encainide] | 1 h | –
CCn1cc(C(=O)O)c(=O)c2cc(F)c(N3CCNCC3)nc21 [Enoxacin] | 3 h | –
CSc1ccc(C(=O)c2[nH]c(=O)[nH]c2C)cc1 [Enoximone] | 4 h | –
CNC[C@H](O)c1ccc(O)c(O)c1 [Epinephrine] | 0.033 h | –
COc1cccc2c1C(=O)c1c(O)c3c(c(O)c1C2=O)C[C@@](O)(C(=O)CO)C[C@@H]3O[C@H]1C[C@H](N)[C@@H](O)[C@H](C)O1 [Epirubicin] | 3 h | –
COC(=O)[C@@H]1CC2=CC(=O)CC[C@]2(C)[C@@]23O[C@@H]2C[C@@]2(C)[C@@H](CC[C@@]24CCC(=O)O4)[C@H]13 [Eplerenone] | 4 h | –
CCCCc1ncc(/C=C(\Cc2cccs2)C(=O)O)n1Cc1ccc(C(=O)O)cc1 [Eprosartan] | 5 h | –
N=C(N)NCCCC[C@@H]1NC(=O)CCSSC[C@@H](C(N)=O)NC(=O)[C@@H]2CCCN2C(=O)[C@H](Cc2c[nH]c3ccccc23)NC(=O)[C@H](CC(=O)O)NC(=O)CNC1=O [Eptifibatide] ([Mpa][hArg]GDWPC-NH2; disulfide 1-7) | – | ½ Life (in vivo): 2.5 h
C[C@@H](CO)NC(=O)[C@@H]1C=C2c3cccc4[nH]cc(c34)C[C@H]2N(C)C1 [Ergonovine] | 1 h | –
CN1C[C@H](C(=O)N[C@]2(C)O[C@@]3(O)[C@@H]4CCCN4C(=O)[C@H](Cc4ccccc4)N3C2=O)C=C2c3cccc4[nH]cc(c34)C[C@H]21 [Ergotamine] | – | ½ Life (in vivo): 2 h
COC(=O)CCc1ccc(OCC(O)CNC(C)C)cc1 (stereo not shown) [Esmolol] | 2 h | –
COc1ccc2nc([S@@+]([O-])Cc3ncc(C)c(OC)c3C)[nH]c2c1 [Esomeprazole] | 1 h | –
C#CC1(OC(N)=O)CCCCC1 [Ethinamate] | – | ½ Life (in vivo): 2.5 h
CCc1cc(C(N)=S)ccn1 [Ethionamide] | 2 h | –

Compound | ½ Life [1] | also measured
CCN1C(=O)NC(c2ccccc2)C1=O (stereo not shown) [Ethotoin] | 3 h | –
CCOc1ccc2nc(S(N)(=O)=O)sc2c1 [Ethoxzolamide] | 2.5 h | –
CC(O)(P(=O)(O)O)P(=O)(O)O [Etidronic acid] | 1 h | –
COc1cc([C@@H]2c3cc4c(cc3[C@@H](O[C@@H]3O[C@@H]5CO[C@@H](C)O[C@H]5[C@H](O)[C@H]3O)[C@H]3COC(=O)[C@H]23)OCO4)cc(OC)c1O [Etoposide] | 4 h | –
CC(C(=O)O)c1cccc(Oc2ccccc2)c1 (stereo not shown) [Fenoprofen] | 3 h | –
CC(C)(C)NC(=O)[C@H]1CC[C@H]2[C@@H]3CC[C@H]4NC(=O)C=C[C@]4(C)[C@H]3CC[C@]12C [Finasteride] | 4.5 h | –
Nc1nc(=O)[nH]cc1F [Flucytosine] | 2.4 h | –
C[C@]12CCC(=O)C=C1CC[C@H]1[C@@H]3CC[C@](O)(C(=O)CO)[C@@]3(C)C[C@H](O)[C@@]12F [Fludrocortisone] | 3.5 h | –
CCOC(=O)c1ncn2c1CN(C)C(=O)c1cc(F)ccc1-2 [Flumazenil] | 4 h | –
CC1(C)O[C@@H]2C[C@H]3[C@@H]4C[C@H](F)C5=CC(=O)C=C[C@]5(C)[C@H]4[C@@H](O)C[C@]3(C)[C@]2(C(=O)CO)O1 [Flunisolide] | 1.8 h | –
CC1(C)O[C@@H]2C[C@H]3[C@@H]4C[C@H](F)C5=CC(=O)C=C[C@]5(C)[C@@]4(F)[C@@H](O)C[C@]3(C)[C@]2(C(=O)CO)O1 [Fluocinolone Acetonide] | 1.3 h | –
O=c1[nH]cc(F)c(=O)[nH]1 [Fluorouracil] | 0.166 h | –
CCN(CC)CCN1C(=O)CN=C(c2ccccc2F)c2cc(Cl)ccc21 [Flurazepam] | 2.3 h | –
CC(C(=O)O)c1ccc(-c2ccccc2)c(F)c1 (stereo not shown) [Flurbiprofen] | 4.7 h | –
CC(C)n1c(/C=C/C(O)CC(O)CC(=O)O)c(-c2ccc(F)cc2)c2ccccc21 (stereo not shown) [Fluvastatin, reference compound] | 3 h | –
O=C1NC(c2ccccc2)(c2ccccc2)C(=O)N1COP(=O)(O)O [Fosphenytoin] | 0.25 h | –
NCC1(CC(=O)O)CCCCC1 [Gabapentin] | – | ½ Life (in vivo): 5 h
O=[N+]([O-])[O-].O=[N+]([O-])[O-].O=[N+]([O-])[O-].[Ga+3] [Gallium nitrate] | – | ½ Life [2]: 1 h
O=C(O)CCCO [Gamma Hydroxybutyric Acid] | – | ½ Life [2]: 0.5 h
CC(=O)[C@H]1CC[C@H]2[C@@H]3CC[C@H]4C[C@](C)(O)CC[C@]4(C)[C@H]3CC[C@]12C [Ganaxolone] | – | ½ Life [2]: 1.3 h
Nc1ccn([C@@H]2O[C@H](CO)[C@@H](O)C2(F)F)c(=O)n1 [Gemcitabine] | – | ½ Life [2]: 0.7 h
Cc1ccc(C)c(OCCCC(C)(C)C(=O)O)c1 [Gemfibrozil, reference compound] | – | ½ Life [2]: 1.5 h; half-life (see Table 1): one and a half; minimum reported half-life (see Table 1): one and a half
CCC1=C(C)CN(C(=O)NCCc2ccc(S(=O)(=O)NC(=O)N[C@H]3CC[C@H](C)CC3)cc2)C1=O [Glimepiride] | – | ½ Life [2]: 5 h
Cc1cnc(C(=O)NCCc2ccc(S(=O)(=O)NC(=O)NC3CCCCC3)cc2)cn1 [Glipizide] | – | ½ Life [2]: 2 h
COc1ccc(Cl)cc1C(=O)NCCc1ccc(S(=O)(=O)NC(=O)NC2CCCCC2)cc1 [Glyburide] | – | ½ Life [2]: 1.4 h
COCCOc1cnc(NS(=O)(=O)c2ccccc2)nc1 [Glycodiazine] | – | ½ Life [2]: 4 h
C[N+]1(C)CCC(OC(=O)C(O)(c2ccccc2)C2CCCC2)C1 (stereo not shown) [Glycopyrrolate] | – | ½ Life [2]: 0.6 h
